The text below walks through data of patent publication US20120101093A1, “SUBSTITUTED IMIDAZO[1,2-A]PYRIDINE DERIVATIVES, PHARMACEUTICAL COMPOSITIONS, AND METHODS OF USE AS BETA-SECRETASE INHIBITORS” (HIGH POINT PHARMACEUTICALS, LLC, priority 2009, published 2012).

The term EC50 denotes the midpoint of the concentration-response curve. Read a high EC50 as lower potency in that assay. One may read the IC50 as the concentration needed to halve the response being measured. Low readings indicate higher potency, high ones lower potency.

The subject of experiment [1] is Aβ1-40 secreted from HEK293 cells stably expressing wildtype human APP695 protein (HEK-APPwt cells). The experiment in a line: Aβ Cell Based Assay (Aβ1-40 secretion, ELISA). To be noted: 6 hours incubation, reduction of Aβ1-40 secretion. The method, then: Aβ Cell Based Assay Procedure
In the following assay, the proteolytic activity of BACE in cells exposed to varying concentrations of a compound of interest is measured by observing the amount of Aβ1-40 secreted from HEK293 cells (Human Embryonic Kidney epithelial cell line) stably expressing wildtype human APP695 protein (HEK-APPwt cells).
HEK-APPwt cells were grown in high glucose DMEM (Dulbecco's Modified Eagles Medium SIGMA Cat.# D5796) supplemented with 25 mM HEPES (4-(2-hydroxyethyl)-1-piperazineethanesulfonic acid) (pH 7.4) (Invitrogen Cat.# 15630-114), 0.1 mM NEAA (Non-essential Amino Acids) (BioWhittaker Cat. #13-114E), 10% fetal bovine serum (SIGMA Cat. #F4135) and 250 μg/mL hygromycin (Invitrogen Cat. #10687-010) in T-225 flasks at 37° C. with 5% CO2 and humidity control.
Test compounds were initially prepared in DMSO and diluted with DMEM media containing 2% FBS (Fetal bovine serum). Ten standard compound solutions were prepared having a range of concentrations. The standard compound solutions were used to determine the EC50 of the test compound. The range of concentrations chosen may depend on the compound's predicted potency.
To prepare the cells for the assay, a flask containing HEK-APPwt cells were trypsinized briefly (1 mL trypsin), and once the cells detached, 4 mL of 10% FBS-DMEM was added to the flask. The detached cells were centrifuged at 900 rpm for 5 min to form a pellet.
The HEK-APPwt cell pellet was re-suspended with 10 mL DMEM media containing 2% FBS. 80 μL of the cell suspension was added to each well of a 96-well cell culture plate to give 100×10^4cells/ml. 10 μL of a standard compound solution was added to each well of the 96-well cell culture plate followed by 10 μL of Alamar blue solution. The cells were incubated at 37° C. in a 5% CO2 incubator for 6 hours.
At the end of the incubation, the plates were removed from incubator, and the supernatant was collected. A≈1-40 concentration in the medium was measured by using a commercial Aβ1-X ELISA kit (IBL, Japan Cat. #27729). Briefly, the ELISA plates were coated with an anti-human AO (N)(82E1) mouse IgG monoclonal antibody. A horseradish peroxidase conjugated anti-human Aβ11-28 mouse IgG monoclonal antibody was used for detection. The cell culture supernatant was diluted with EIA buffer +protease inhibitors (kit buffer containing protease inhibitors (1 mL PI/30 mL buffer)). A 100 μL aliquot of the diluted supernatant was added to each well of the ELISA plate and incubated for 6 hrs at 4° C. The ELISA plate was washed 8 times with phosphate buffered saline (PBS) containing 0.05% Tween 20.
A 100 μL of detection antibody was then added and incubated for 1 hour at 4° C. The plate was washed 8 times with PBS buffer containing 0.05% Tween 20 followed by addition of 100 μL of the chromogen tetramethylbenzidine (TMB). The plate was incubated in the dark at room temperature for about 30 min and a stop solution (1N H2SO4) was added.
The intensity of the color developed was measured at 450 nm. The optical density at 450 nm (OD450) is proportional to the concentration of human Aβ1-40 secreted by the cell. As a reference, N-[N-(3,5-difluorophenacetyl-L-alanyl)]-S-phenylglycine t-butyl ester (DAPT, a γ-secretase inhibitor) was used to indicate 100% inhibition of BACE activity. Thus, the assay measures the ability of a compound of interest to reduce Aβ1-40 secretion. For select compounds, compound potency is reported in Table 3 as the EC50 by calculating the percent inhibition at all concentration levels and the data were fit with non-linear curve fitting algorithm using GraphPad Prism.
Background: An ELISA detects its analyte on a solid surface through an enzyme-linked reagent.

Experiment [2] has as its target T1, BACE-1 enzyme (Homo sapiens, UniProt P56817).
T1 construct: purchased R & D Systems 931AS
The experiment in a line: BACE Fluorescence Resonance Energy Transfer (FRET) Assay. The class given is biochemical. The conditions noted are these: pH 4-4.5, 30 min pre-incubation, about 1.5 hours reaction. The gist of the method:
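BACE-1 enzyme pre-incubated 30 min with compound in 7.5% DMSO in 50 mM sodium acetate pH 4-4.5, 0.01% CHAPS, 0.0125% Triton X-100, 0.006% EDTA. Rhodamine/quencher peptide substrate added; ~1.5 h at room temperature, fluorescence read at 540/585 nm. IC50 or percent inhibition at one concentration.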

T1 sequence (P56817 46-457 limits assumed): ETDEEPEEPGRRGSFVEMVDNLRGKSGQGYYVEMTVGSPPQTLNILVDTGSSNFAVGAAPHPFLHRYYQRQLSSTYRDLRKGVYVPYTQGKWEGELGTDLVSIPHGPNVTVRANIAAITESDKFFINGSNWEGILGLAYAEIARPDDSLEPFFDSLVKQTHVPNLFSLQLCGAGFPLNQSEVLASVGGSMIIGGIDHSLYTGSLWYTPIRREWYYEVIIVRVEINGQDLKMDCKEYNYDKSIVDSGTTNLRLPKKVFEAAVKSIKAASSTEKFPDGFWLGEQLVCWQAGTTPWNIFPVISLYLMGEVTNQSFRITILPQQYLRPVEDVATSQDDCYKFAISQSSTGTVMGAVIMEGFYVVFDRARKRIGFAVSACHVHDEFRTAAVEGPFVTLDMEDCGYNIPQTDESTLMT

`Cc1cccc2nc(C(=O)Nc3nc4cc(-c5ccc(F)c(Cl)c5)ccc4[nH]3)cn12` [Example 64, 5-Methyl-imidazo[1,2-a]pyridine-2-carboxylic acid [5-(3-chloro-4-fluoro-phenyl)-1H-benzoimidazol-2-yl]-amide] came in with a concentration giving a half-maximal response (EC50) in experiment [1] (Homo sapiens, HEK293, 6 h) of 0.14 µM. Further, in experiment [2], the concentration for half-maximal inhibition (IC50) is 0.31 µM.

`Cc1cccn2cc(C(=O)Nc3nc4cc(-c5ccc(F)c(Cl)c5)ccc4[nH]3)nc12` [Example 65, 8-Methyl-imidazo[1,2-a]pyridine-2-carboxylic acid [5-(3-chloro-4-fluoro-phenyl)-1H-benzoimidazol-2-yl]-amide] registered an EC50 in experiment [1] (Homo sapiens, HEK293, 6 h) of 0.96 µM. Besides, the concentration for half-maximal inhibition (IC50) in experiment [2] came out at 0.3 µM.

On to `Cc1cccc2nc(C(=O)Nc3nc4cc(-c5ccc(Cl)cc5)ccc4[nH]3)cn12` [Example 68, 5-Methyl-imidazo[1,2-a]pyridine-2-carboxylic acid [5-(4-chloro-phenyl)-1H-benzoimidazol-2-yl]-amide], for which the EC50 in experiment [1] (Homo sapiens, HEK293, 6 h) was found to be 1.61 µM. Further, the IC50 in experiment [2] turned out to be 0.48 µM.

`Cc1cccn2cc(C(=O)Nc3nc4cc(-c5ccc(Cl)cc5)ccc4[nH]3)nc12` [Example 69, 8-Methyl-imidazo[1,2-a]pyridine-2-carboxylic acid [5-(4-chloro-phenyl)-1H-benzoimidazol-2-yl]-amide] yielded an EC50 in experiment [1] (Homo sapiens, HEK293, 6 h) of 6.97 µM. Besides, the IC50 in experiment [2] stood at 0.46 µM.

Regarding `Cc1cccc2nc(C(=O)Nc3nc4cc(-c5cc(C(F)(F)F)ccc5F)ccc4[nH]3)cn12` [Example 70, 5-Methyl-imidazo[1,2-a]pyridine-2-carboxylic acid [5-(2-fluoro-5-trifluoromethyl-phenyl)-1H-benzoimidazol-2-yl]-amide], a half-maximal effect in experiment [1] (Homo sapiens, HEK293, 6 h) (EC50) was put at 0.21 µM. In addition, the IC50 in experiment [2] was 0.26 µM.

`Cc1cccn2cc(C(=O)Nc3nc4cc(-c5cc(C(F)(F)F)ccc5F)ccc4[nH]3)nc12` [Example 71, 8-Methyl-imidazo[1,2-a]pyridine-2-carboxylic acid [5-(2-fluoro-5-trifluoromethyl-phenyl)-1H-benzoimidazol-2-yl]-amide]: in experiment [1] (Homo sapiens, HEK293, 6 h), the concentration for a half-maximal effect (EC50) was found to be 1.56 µM. The same compound registered a 50% inhibitory concentration (IC50) in experiment [2] of 0.36 µM.

Consider `CCOC(=O)c1cccc(-c2ccc3[nH]c(NC(=O)c4cn5c(C)cccc5n4)nc3c2)c1` [Example 72, 3-{2-[(5-Methyl-imidazo[1,2-a]pyridine-2-carbonyl)-amino]-1H-benzoimidazol-5-yl}-benzoic acid ethyl ester], for which the EC50 in experiment [1] (Homo sapiens, HEK293, 6 h) amounted to 1.51 µM. In experiment [2], this compound returned a 50% inhibitory concentration (IC50) of 0.62 µM.

Compound `COc1ccc(-c2ccc3[nH]c(NC(=O)c4cn5c(C)cccc5n4)nc3c2)cc1C(F)(F)F` [Example 76, 5-Methyl-imidazo[1,2-a]pyridine-2-carboxylic acid [5-(4-methoxy-3-trifluoromethyl-phenyl)-1H-benzoimidazol-2-yl]-amide] gave a 50% effective concentration (EC50) in experiment [1] (Homo sapiens, HEK293, 6 h) of 0.89 µM. In experiment [2], this compound displayed a half-inhibitory concentration (IC50) of 0.38 µM.

In the case of `Cc1cccc2nc(C(=O)Nc3nc4cc(-c5ccc(C(C)(C)C)cc5)ccc4[nH]3)cn12` [Example 77, 5-Methyl-imidazo[1,2-a]pyridine-2-carboxylic acid [5-(4-tert-butyl-phenyl)-1H-benzoimidazol-2-yl]-amide], in experiment [1] (Homo sapiens, HEK293, 6 h), the concentration giving a half-maximal response (EC50) is 0.85 µM. Further, the 50% inhibitory concentration (IC50) in experiment [2] worked out at 0.61 µM.

As for `Cc1cccn2cc(C(=O)Nc3nc4cc(-c5ccc(C(C)(C)C)cc5)ccc4[nH]3)nc12` [Example 78, 8-Methyl-imidazo[1,2-a]pyridine-2-carboxylic acid [5-(4-tert-butyl-phenyl)-1H-benzoimidazol-2-yl]-amide], in experiment [1] (Homo sapiens, HEK293, 6 h), the EC50 turned out to be 0.98 µM. The compound also displayed an IC50 in experiment [2] of 0.37 µM.

For `CCOc1ccc(-c2ccc3[nH]c(NC(=O)c4cn5c(C)cccc5n4)nc3c2)cc1Cl` [Example 79, 5-Methyl-imidazo[1,2-a]pyridine-2-carboxylic acid [5-(3-chloro-4-ethoxy-phenyl)-1H-benzoimidazol-2-yl]-amide], the response in experiment [1] was half-maximal at 1.54 µM (EC50). This compound also displayed an IC50 in experiment [2] of 1.82 µM.

`CCOc1ccc(-c2ccc3[nH]c(NC(=O)c4cn5c(C)cccc5n4)nc3c2)cc1F` [Example 80, 5-Methyl-imidazo[1,2-a]pyridine-2-carboxylic acid [5-(4-ethoxy-3-fluoro-phenyl)-1H-benzoimidazol-2-yl]-amide] registered an EC50 in experiment [1] (Homo sapiens, HEK293, 6 h) of 1.32 µM. Moreover, it took 0.81 µM to reach half-maximal inhibition in experiment [2] (IC50).

`Cc1cccc2nc(C(=O)Nc3nc4cc(-c5cccc(C#N)c5)ccc4[nH]3)cn12` [Example 82, 5-Methyl-imidazo[1,2-a]pyridine-2-carboxylic acid [5-(3-cyano-phenyl)-1H-benzoimidazol-2-yl]-amide] displayed a half-maximal effective concentration (EC50) in experiment [1] (Homo sapiens, HEK293, 6 h) of 1.1 µM. Also, half-maximal inhibition in experiment [2] (IC50) required 2.21 µM.

In experiment [1] (Homo sapiens, HEK293, 6 h), `Cc1cccc2nc(C(=O)Nc3nc4cc(C5=CCCCC5)ccc4[nH]3)cn12` [Example 83, 5-Methyl-imidazo[1,2-a]pyridine-2-carboxylic acid (5-cyclohex-1-enyl-1H-benzoimidazol-2-yl)-amide] displayed an EC50 of 4.17 µM. The half-inhibitory concentration (IC50) in experiment [2] was 1.45 µM.

In experiment [1] (Homo sapiens, HEK293, 6 h), `Cc1cccn2cc(C(=O)Nc3nc4cc(-c5cccc(C#N)c5)ccc4[nH]3)nc12` [Example 84, 8-Methyl-imidazo[1,2-a]pyridine-2-carboxylic acid [5-(3-cyano-phenyl)-1H-benzoimidazol-2-yl]-amide] yielded an EC50 of 2.9 µM. The same compound came in with an IC50 in experiment [2] of 1.21 µM.

`Cc1cccc2nc(C(=O)Nc3nc4cc(-c5cc(Cl)ccc5Cl)ccc4[nH]3)cn12` [Example 87, 5-Methyl-imidazo[1,2-a]pyridine-2-carboxylic acid [5-(2,5-dichloro-phenyl)-1H-benzoimidazol-2-yl]-amide] registered an EC50 in experiment [1] (Homo sapiens, HEK293, 6 h) of 0.73 µM. This compound yielded a concentration for half-maximal inhibition (IC50) in experiment [2] of 0.22 µM.

As for `Cc1cccc2nc(C(=O)Nc3nc4cc(-c5ccc(C(F)(F)F)c(Cl)c5)ccc4[nH]3)cn12` [Example 92, 5-Methyl-imidazo[1,2-a]pyridine-2-carboxylic acid [5-(3-chloro-4-trifluoromethyl-phenyl)-1H-benzoimidazol-2-yl]-amide], it took 0.22 µM to reach a half-maximal effect in experiment [1] (Homo sapiens, HEK293, 6 h) (EC50). For the same compound, the IC50 in experiment [2] was found to be 0.6 µM.

Regarding `Cc1cccc2nc(C(=O)Nc3nc4cc(-c5ccc(OC(C)C)cc5)ccc4[nH]3)cn12` [Example 97, 5-Methyl-imidazo[1,2-a]pyridine-2-carboxylic acid [5-(4-isopropoxy-phenyl)-1H-benzoimidazol-2-yl]-amide], the midpoint of the response in experiment [1] (Homo sapiens, HEK293, 6 h), the EC50, lay at 1.78 µM. The IC50 in experiment [2] came out at 0.58 µM.

The compound `Cc1cc(-c2ccc3[nH]c(NC(=O)c4cn5c(C)cccc5n4)nc3c2)ccc1Cl` [Example 99, 5-Methyl-imidazo[1,2-a]pyridine-2-carboxylic acid [5-(4-chloro-3-methyl-phenyl)-1H-benzoimidazol-2-yl]-amide] showed an EC50 in experiment [1] (Homo sapiens, HEK293, 6 h) of 0.12 µM. This compound came in with an IC50 in experiment [2] of 0.27 µM.

As to `Cc1cccc2nc(C(=O)Nc3nc4cc(-c5ccc(O)c(C(F)(F)F)c5)ccc4[nH]3)cn12` [Example 100, 5-Methyl-imidazo[1,2-a]pyridine-2-carboxylic acid [5-(4-hydroxy-3-trifluoromethyl-phenyl)-1H-benzoimidazol-2-yl]-amide], the EC50 in experiment [1] (Homo sapiens, HEK293, 6 h) turned out to be 2.44 µM. In experiment [2], this compound yielded a half-maximal inhibitory concentration (IC50) of 0.46 µM.

In the case of `Cc1cccc2nc(C(=O)Nc3nc4cc(-c5ccsc5)ccc4[nH]3)cn12` [Example 102, 5-Methyl-imidazo[1,2-a]pyridine-2-carboxylic acid (5-thiophen-3-yl-1H-benzoimidazol-2-yl)-amide], the EC50 in experiment [1] (Homo sapiens, HEK293, 6 h) turned out to be 2.46 µM. In experiment [2], this compound showed a 50% inhibitory concentration (IC50) of 0.45 µM.
